Experimental data published in US11413278B2, “Compounds and methods for promoting stress resistance” (priority 2015, dated 2022).
Read-outs that look alike come from different tables or passages of the source.

Assays:
FOXO3 = FOXO3 siRNA knockdown: dependency for H2O2-resistance; type: cell-based, human
Method: For qPCR analysis, WI-38 cells were treated with small molecules (at 10 μM) (biological quadruplicates) for 24 hrs and processed for RNA isolation and reverse transcription (RT) with the Cells-to-Ct Kit (Life Technologies), following manufacturer's instructions. RT products were diluted with H2O and used for qPCR analysis on an ABI 7300 system (Life Technologies) (technical triplicates). Relative expression levels of target genes were normalized to the genes B2M, PPIA and GAPDH. To knock down the expression of FOXO3 or NRF2, WI-38 cells were transfected, using the RNAiMAX reagents (Life Technologies), with siRNA oligos (at 10 nM final concentration, 10 ml culture medium) for FOXO3 (Life Technologies) or NRF2 (Integrated DNA Technologies) on 10-cm petri dishes for 36 hrs, and then detached and aliquoted onto 96-well (for qPCR analysis) or 384-well plates (for H2O2-stress treatment). ˜24 hrs later, small molecules were introduced and incubated with cells for 24 hrs. Cells were then either processed with the Cells-to-Ct Kit to prepare RT products for qPCR analysis or subjected to H2O2 (700 μM) for 3 hrs and assayed for viability. The knockdown efficiency of FOXO3 or NRF2 was checked at 36 hrs post-transfection and at the end as well. […]
Applicants used siRNA to knock down FOXO3 expression by ˜70% in an attempt to identify whether the activation of these genes depends on activity of FOXO3 and/or NRF2. […] We used siRNA to knock down FOXO3 expression by ˜60% to 70% (FIG. 3; see data in Table 6). […] (Given the caveat that FOXO3 was not fully knocked down, partial dependency was scored when the H2O2-resistance capacity was reduced by at least 25% but less than 50% upon siRNA knockdown). At least for Gr-7A and Gr-7C, which are structurally related, the observed FOXO3-dependency for H2O2-resistance is consistent with their strong effects to induce FOXO3 target genes (Tables 1a-1f, Table 6, & Table 15), including SOD2 and GADD45A.

WI-38 cells = test: CdCl2 (cadmium) resistance assay; type: cell-based, human; conditions: for fold induction at 10 µM: Homo sapiens, 12 h, normalized ATP measurement; for Assay 4: H2O2- & Cd-resistant / Assay 2: Cadmium-resistant: YES/NO; for Assay 2: Cadmium-resistant: * indicates partial
Summary of the method: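 Resistance to CdCl2 or MMS stress (12 h exposure) was scored in WI-38 fibroblasts pretreated with compound at 0.25–20 μM final, five doses, technical triplicates. MMS plates had compound added 24 h before MMS, after a shift to serum-free DMEM+2% BSA. Significance came from a global variance t-test over two independent runs.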

NRF2 = test: in vitro; type: cell-based, human; conditions: for NRF2-dependency for H2O2-resistance (experiment 3): with & without H2O2, NRF2 knockdown in WI-38 cells; for NRF2-dependency of H2O2-resistance (NRF2 siRNA knockdown): at least 2 of 3 independent experiments
[1] = test system: human dermal fibroblast (HDF) primary cells; test: H2O2-resistance in primary human dermal fibroblasts; type: cell-based; conditions: for fold induction at 10 µM: Homo sapiens; for Assay 6: H2O2-resistant, at 10 uM, human dermal fibroblast (HDF) primary cells: YES/NO
[2] = Exp. 1, WI-38 cells, read-out: Exp. 1, under Cd2Cl2 stress treatment, at 10 uM (fold change)
[3] = Exp. 2, WI-38 cells, read-out: Exp. 2, under Cd2Cl2 stress treatment, at 10 uM (fold change)
[4] = score in summary of 38 core set hits
[5] = Experiment 1, HDF cells, read-out: Experiment 1, HDF cells (under H2O2 stress treatment), at 10 uM (fold change)
[6] = Experiment 2, HDF cells, read-out: Experiment 2, HDF cells (under H2O2 stress treatment), at 10 uM (fold change)
[7] = WI-38 cells, 10 μM, both stressors
[8] = 10 uM, YES = resistance reduced by at least 50%, partial = 25% to 50%

Row | SMILES | I = FOXO3-dependency for H2O2-resistance (FOXO3; score) | I = FOXO3-dependency for H2O2-resistance (FOXO3; summary score) | fold induction at 10 µM (WI-38 cells; [2]) | fold induction at 10 µM (WI-38 cells; [3]) | A = Cadmium resistant (WI-38 cells; [4]) | A = Cadmium resistant (WI-38 cells; summary score) | C = H2O2- & Cd-resistant (WI-38 cells; summary score) | J = NRF2-dependency for H2O2-resistance (NRF2; score) | J = NRF2-dependency for H2O2-resistance (NRF2; summary score) | fold induction at 10 µM [1, 5] | fold induction at 10 µM [1, 6] | Assay 6: H2O2-resistant, at 10 uM, human dermal fibroblast (HDF) primary cells [1] | CdCl2-resistant (WI-38 cells) | H2O2- & CdCl2-resistant (WI-38 cells) | CdCl2-resistant (WI-38 cells; WI-38 cells, 10 μM) | H2O2- & CdCl2-resistant (WI-38 cells; [7]) | Assay 4: H2O2- & Cd-resistant (WI-38 cells) | Assay 2: Cadmium-resistant (WI-38 cells) | other results
1 | Nc1ccccc1S(=O)(=O)Nc1cccc2cccnc12 [Gr-3C] | 0 | 0 | 0.06 | 0.4 | 0 | 0 | 0 | 0 | 0 | 6.59 | 1.69 | YES | – | – | – | – | – | – | –
2 | COc1ccc(C(=O)/C=C/c2ccc(F)cc2)c(OC)c1 [Gr-4A] | 0 | 0 | 1.98 | 1.66 | 1 | 1 | 1 | 0 | 0 | 7.16 | 2.35 | YES | YES | YES | YES | YES | YES | YES | –
3 | COc1ccc(C(=O)/C=C/c2ccccc2Br)c(OC)c1 [Gr-4B] | 0 | 0 | 2 | 1.52 | 1 | 1 | 1 | 0 | 0 | 13.7 | 55.6 | YES | YES | YES | YES | YES | YES | YES | –
4 | COc1ccc(C(=O)/C=C/c2cccc(Cl)c2)c(OC)c1 [Gr-4C] | 0 | 0 | 1.07 | 1.19 | 0 | 1 | 1 | 0 | 0 | 4.32 | 3.15 | YES | – | – | – | – | YES | YES | –
5 | O=C(/C(=C/c1ccc(Cl)cc1)c1nc2ccccc2[nH]1)c1ccccc1 [Gr-4D] | 0 | 0 | 2.1 | 2.88 | 1 | 1 | 1 | 0 | 0 | 1.06 | 2 | YES | YES | YES | YES | YES | YES | YES | FOXO3-dependency for H2O2-resistance, at 10 uM (experiment 3) - with & without H2O2 (FOXO3; 10 uM, experiment 3, with & without H2O2): Partial; FOXO3-dependency for H2O2-resistance (experiment 3) (FOXO3; 10 uM, with & without H2O2, FOXO3 knockdown in WI-38 cells, YES = resistance reduced by at least 50%, partial = 25% to 50%): Partial; Requirement of FOXO3 to promote H2O2-resistance (FOXO3; FOXO3 siRNA, at least 2 of 3 independent experiments): not FOXO3; NRF2-dependency for H2O2-resistance, at 10 uM (experiment 3) - with & without H2O2 (NRF2; 10 uM): Partial; NRF2-dependency for H2O2-resistance (experiment 3) (NRF2; [8]): Partial; NRF2-dependency of H2O2-resistance (NRF2 siRNA knockdown) (NRF2): partially dependent on NRF2
6 | CCc1ccc(Oc2nc3ccccn3c(=O)c2/C=C(\C#N)C(=O)NC2CCCCC2)cc1 [Gr-5A] | 0 | 0 | 4.12 | 2.4 | 1 | 0 | 0 | 0 | 0 | 2.95 | 2 | YES | YES | YES | YES | YES | – | – | –
7 | CCc1ccc(Oc2nc3ccccn3c(=O)c2/C=C(\C#N)C(=O)NCc2ccco2)cc1 [Gr-5B] | 0 | 0 | 1.29 | 1.36 | 0 | 0 | 0 | 0 | 0 | 9.16 | 13.3 | YES | – | – | – | – | – | – | –
8 | CNC(=O)/C(C#N)=C/c1c(Oc2ccc(C(C)(C)C)cc2)nc2ccccn2c1=O [Gr-5D] | 0 | 0 | – | – | 0 | 1 | 1 | 0 | 0 | 0.18 | 2.66 | YES | – | – | – | – | YES | YES | –
9 | Cc1cc(N)n(-c2ccccc2C(=O)O)n1 [Gr-6A] | 0 | 0 | 2.46 | 2.36 | 1 | 1 | 1 | 0 | 0 | 10.3 | 39.3 | YES | YES | YES | YES | YES | YES | YES | –
10 | O=C(/C=C/c1cn(-c2ccccc2)nc1-c1cccnc1)c1ccccc1 [Gr-6B] | 0 | 0 | 5.07 | 2.65 | 1 | 1 | 1 | 1 | 1 | 3.6 | 57.6 | YES | YES | YES | YES | YES | YES | YES | NRF2-dependency for H2O2-resistance, at 10 uM - with H2O2, 2nd experiment (NRF2; 10 uM, experiment 2 (2nd), with H2O2): 2nd, partial.; NRF2-dependency for H2O2-resistance, at 10 uM (experiment 3) - with & without H2O2 (NRF2; 10 uM): YES; NRF2-dependency for H2O2-resistance (experiment 3) (NRF2; [8]): YES; NRF2-dependency for H2O2-resistance, 2nd experiment (NRF2; 10 uM, with H2O2, NRF2 knockdown in WI-38 cells, YES = resistance reduced by at least 50%, partial = 25% to 50%): partial.; Assay 17: NRF2-dependency for H2O2-resistance (NRF2; 10 uM, YES/NO): YES; NRF2-dependency of H2O2-resistance (NRF2 siRNA knockdown) (NRF2): significantly attenuate
